# According to patent US20260124200A1, “METHOD OF TREATING NEURODEGENERATIVE DISEASES” (The Board of Trustees of the University of Illinois, priority 2022, published 2026):
# What was measured:
# [1] = test system: fpn-1.2KO C. elegans; test: Dopaminergic neurodegeneration scoring in fpn-1.2KO; Pdat::GFP worms; type: in vivo
# Excerpt: (§1) The ability of hinokitiol and FeM-1269 to confer neuroprotection. Replicated NBIA, was created fpn-1.2KO C. elegans strain using CRISPR/Cas9-mediated knockout and then mated with Pdat::GFP strain to create a fpn-1.2KO strain with GFP-tagged dopaminergic neurons (fpn-1.2KO; Pdat::GFP). The genotype of strains was verified by genotyping PCR and Sanger sequencing. All strains used have been backcrossed to N2 at least three times. To treat C. elegans with small molecules, day 4 adult worms were transferred to NGM containing small molecules. Worms were transferred to newly seeded small molecules containing NGM until the day seven in which they are imaged using a confocal microscope with GFP fluorescence. The scoring is conducted in a blinded study in which the integrity of the dopaminergic neuron is observed to reflect neurodegeneration. […] Hinokitiol derivative FeM-1269 may have potential to increase the therapeutic index of hinokitiol. […] On the other hand, hinokitiol and FeM-1269 treatment to fpn-1.2KO worms caused robust reductions of fluorescence levels (FIG. 3G-H) from the concentration of 0.1 μM and 0.05 μM, respectively, which can be associated with the release of intracellular iron from ASI neurons. […]
# [2] = target: human apo-Tf (Homo sapiens, UniProt P02787); test: Iron handoff to transferrin; type: biochemical
# human apo-Tf, sequence (P02787 20-698): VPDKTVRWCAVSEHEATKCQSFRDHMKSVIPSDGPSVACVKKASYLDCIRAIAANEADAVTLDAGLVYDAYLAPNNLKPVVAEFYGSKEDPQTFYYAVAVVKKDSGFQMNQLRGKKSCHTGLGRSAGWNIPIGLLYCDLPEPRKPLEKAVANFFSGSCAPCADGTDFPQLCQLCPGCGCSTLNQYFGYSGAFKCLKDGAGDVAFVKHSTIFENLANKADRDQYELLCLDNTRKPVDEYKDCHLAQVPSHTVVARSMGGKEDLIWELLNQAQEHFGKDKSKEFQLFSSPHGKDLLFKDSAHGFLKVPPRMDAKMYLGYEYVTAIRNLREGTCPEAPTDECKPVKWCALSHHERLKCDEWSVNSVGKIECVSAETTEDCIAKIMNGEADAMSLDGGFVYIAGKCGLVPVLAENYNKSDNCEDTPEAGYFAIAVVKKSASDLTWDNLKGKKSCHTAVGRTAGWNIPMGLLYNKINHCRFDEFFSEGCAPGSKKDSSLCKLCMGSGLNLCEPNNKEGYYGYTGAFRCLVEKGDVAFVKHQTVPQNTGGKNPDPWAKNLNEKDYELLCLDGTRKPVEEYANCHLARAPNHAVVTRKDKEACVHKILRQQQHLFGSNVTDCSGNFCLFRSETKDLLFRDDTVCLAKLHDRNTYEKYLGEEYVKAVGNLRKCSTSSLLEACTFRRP
# Protocol: For kinetic experiments, 4 μM human apo-Tf was incubated with 64 μM Fe(Hino)3 complex. The reactions were stopped at several time points using sample buffer. Samples were run using the same conditions as above. After running, the gels were stained with RAPIDStain (G-biosciences 786-31), according to the manufacturer's instructions. The formation of different Fe-Tf species was quantified by measuring the band densities using ImageLab 4.1 (Bio-Rad) and expressed as a function of molar fractions.
# [3] = test system: flatiron mice; test: ICP-MS brain iron level in flatiron mice; type: in vivo
# Protocol: In parallel to C. elegans, flatiron mice were used, a leading animal model of FPN1 deficiency due to H32R mutation of FPN1 (34, 35). These mice were subjected to ICP-MS and behavioral studies in which blood samples and tissues were collected and submitted for analysis. In addition, behavior was assessed by an elevated plus maze, exploratory mazes, and daily monitoring. […] To determine dose-dependency these mice were subjected to a singular IP injection to assess acute administration and then treated chronically via IP injections of 10 mg/kg for a week.
# [4] = test system: FPN1.2KO C. elegans; test: ROS (DCF) in lysate of treated FPN1.2KO C. elegans; type: in vivo; conditions: treated day four, collected day 5, lysate with DCF
# [5] = Cyclic voltammetry of hinokitiol-iron complexes; type: physicochemical; conditions: 100 mV/s, 0.1 M Tris, 1:1 MeOH:H2O, pH=7.2, 100 μM Fe(NO3)3
# Protocol: These were obtained with a 100 mV/s scan rate with a Hg electrode, Ag/AgCl reference, and graphite auxiliary using a 0.1 M Tris buffer in 1:1 MeOH:H2O at pH=7.2 and 100 μM Fe(NO3)3.
# [6] = EPR of Fe(II) oxidation on compound binding
# [7] = LC-MS in vitro dopamine oxidation assay; type: physicochemical; conditions: 100 μM dopamine
# Protocol: To monitor dopamine oxidation, an in vitro assay using an LC-MS was developed by monitoring dopamine concentrations via mass spectrometry hits. Samples of 100 μM dopamine were prepared and then treated with either control, hino, or FeM-1269. […] In addition, this was monitored via LC-MS to see the concentration of DAC generated in this same process.
# [8] = test system: fpn-1.2KO C. elegans; test: GFP-tagged ferritin (ftn-1) fluorescence in ASI neurons of fpn-1.2KO worms; type: in vivo
# Excerpt: as §1
iron handoff to transferrin [2],ferroxidase-mimicking activity (EPR) ([6]; EPR results),"EPR signal g′ ([6]; Fe(II) plus compound 3:1, 1:1 MeOH:H2O, 77K)",dopamine oxidation (dopamine remaining) [7],SMILES,concentration showing neuroprotective efficacy ([1]; worms treated day 4 to day seven) [µM],blood-brain barrier penetration ([3]; inferred from brain iron decrease),brain iron level after acute administration ([3]; singular IP injection),ROS level in vivo [4],redox potentials of Fe:Hino [5],"concentration from which fluorescence levels are robustly reduced ([8]; ASI neurons, GFP-tagged ferritin) [µM]",neuroprotective effect (dopaminergic neurodegeneration score) ([1]; all concentrations administered),ferritin-GFP fluorescence level in ASI neurons ([8]; all administered concentrations)
can handoff iron to transferrin,promoting Fe(II) oxidation to Fe(III),4.3,mitigating dopamine oxidation,CC(C)c1cccc(=O)c(O)c1 [hinokitiol],0.05 to 0.1,capacity to penetrate blood-brain barrier,dose-dependent decrease of brain iron level,restore wild type levels of ROS,decreased with increasing hinokitiol concentrations,≥ 0.1,,
,,,,"Cc1c(O)c(=O)ccn1C [DFP, deferiprone]",,,,,,,did not confer neuroprotective effects,failed to reduce the fluorescence level
